Measurements as given in patent US20180119123A1, “CRISPR/CAS-RELATED METHODS AND COMPOSITIONS FOR TREATING HIV INFECTION AND AIDS” (EDITAS MEDICINE, INC., priority 2015, published 2018).
Entries after “also recorded” stand apart in the source; their conditions may differ.

Tested on: human mobilized peripheral blood CD34^+ HSCs
Assay: Fold change in CD34+ cell number (trypan blue count) 96 hours after Nucleofection
Type: cell-based
Experimental: Human CD34^+ HSCs cells from mobilized peripheral blood (AllCells) were thawed into StemSpan Serum-Free Expansion Medium (SFEM™, StemCell Technologies) containing 100 ng/mL each of the following cytokines: human stem cell factor (SCF), thrombopoietin (TPO), and flt-3 ligand (FL) (all from Peprotech). Cells were grown for 3 days in a humidified incubator and 5% CO2 20% O2. […] The published use of UM171 involved prolonged exposure of HSCs to the small molecule for ex vivo expansion of HSCs. In the current experiment, HSCs were exposed to UM171 for 2 hours before and 24 hours after delivery of Cas9 and gRNA plasmid DNA. This UM171 treatment protocol was based on pilot studies performed by the inventors that indicated acute pre-treatment with UM171 before lentivirus vector mediated gene delivery improved HSC viability compared to HSCs treated with vehicle (dimethylsulfoxide, DMSO, Sigma) alone. […] At 96 hours after Nucleofection™, CD34^+ cells were counted for by trypan blue exclusion and divided into 3 portions for the following analyses: a) flow cytometry analysis for assessment of viability by co-staining with 7-Aminoactinomycin-D (7-AAD) and allophycocyanin (APC)-conjugated Annexin-V antibody (ebioscience); b) flow cytometry analysis for maintenance of HSC phenotype (after co-staining with phycoerythrin (PE)-conjugated anti-human CD34 antibody and fluorescein isothicyanate (FITC)-conjugated anti-human CD90, both from BD Bioscience; c) hematopoietic colony forming cell (CFC) analysis by plating 1500 cells in semi-solid methylcellulose based Methocult medium (StemCell Technologies) that supports differentiation of erythroid and myeloid blood cell colonies from HSCs and serves as a surrogate assay to evaluate HSC multipotency and differentiation potential ex vivo; d) genomic DNA analysis for detection of editing at the CCR5 locus. […]

## Cn1nnc(-c2ccc3c(c2)[nH]c2nc(Cc4ccccc4)nc(N[C@H]4CC[C@H](N)CC4)c23)n1 [UM171, (1r,4r)-N1-(2-benzyl-7-(2-methyl-2H-tetrazol-5-yl)-9H-pyrimido[4,5-b]indol-4-yl)cyclohexane-1,4-diamine]
40 nM UM171, S. aureus or S. pyogenes Cas9 and CXCR4 gRNA plasmids
  Fold expansion / proliferation potential of Nucleofected CD34+ cells with UM171 pre-treatment versus without: higher fold-expansion; also recorded: maintain proliferation potential
Nucleofection with wild type Cas9 and CCR5-U43 gRNA plasmid DNA + UM171 treatment (40 nM, 2 hours before and 24 hours after)
  Fold change in cell number of CD34^+ cells (96 hours vs. time 0 cell number): 1.5
